This passage reports Activity results from ChEMBL document CHEMBL1156180, “Synthesis and bioluminescence-inducing properties of autoinducer (S)-4,5-dihydroxypentane-2,3-dione and its enantiomer” (Bioorg Med Chem Lett, 2010).

Activity calls are given as the source filed them. The rule behind the calls is not given here.

In this experiment the target is Autoinducer 2-binding periplasmic protein LuxP (Vibrio harveyi) (UniProt P54300). The experiment is described as follows: Induction of Vibrio harveyi BB170 LuxP sensor protein-mediated quorum sensing activity at 0.5 to 5 ug/ml by reporter bioluminescence assay.
Chain of Autoinducer 2-binding periplasmic protein LuxP (Vibrio harveyi) (P54300 whole entry): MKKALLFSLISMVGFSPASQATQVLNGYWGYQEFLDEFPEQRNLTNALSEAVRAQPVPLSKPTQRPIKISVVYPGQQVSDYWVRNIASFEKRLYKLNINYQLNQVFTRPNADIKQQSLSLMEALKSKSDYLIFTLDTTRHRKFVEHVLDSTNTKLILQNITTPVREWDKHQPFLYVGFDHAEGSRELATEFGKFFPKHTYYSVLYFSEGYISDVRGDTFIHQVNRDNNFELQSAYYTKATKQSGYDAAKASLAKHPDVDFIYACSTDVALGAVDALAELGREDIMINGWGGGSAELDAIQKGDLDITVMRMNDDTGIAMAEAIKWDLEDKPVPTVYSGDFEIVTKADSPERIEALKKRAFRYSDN

As for `CC(=O)C(=O)[C@H](O)CO`, the outcome was Active.

On to `CC(=O)C(=O)[C@@H](O)CO`, for which the result was Active.
